Results published in the NIST ThermoML archive (doi:10.1021/acs.jced.6b00269).
Numbers after ± are expanded uncertainties.

Conditions: for viscosity / mass density: 101.33 kPa, Liquid; for viscosity: Cone and plate viscometry; for mass density: Vibrating tube method; for Normal melting temperature: Crystal, DTA; for Glass transition temperature: DSC

CCCC[P+](CC)(CC)CC.Cc1ncc([N+](=O)[O-])[n-]1 [butyltriethylphosphonium 2-methyl-5-nitroimidazolide]
Conditions | Glass transition temperature [°C] | Normal melting temperature [°C] | mass density [kg/m3] | viscosity [mPa·s]
– | -71 ± 2 | 17 ± 2 | – | –
278.15 K | – | – | – | 2180 ± 210
283.15 K | – | – | 1074.4 ± 6.3 | 1350 ± 120
288.15 K | – | – | 1071.3 ± 6.2 | 858 ± 73
293.15 K | – | – | 1068.3 ± 6.2 | 569 ± 46
295.15 K | – | – | 1067.1 ± 6.2 | –
298.15 K | – | – | 1065.3 ± 6.1 | 391 ± 30
303.15 K | – | – | 1062.3 ± 6.1 | 277 ± 20
308.15 K | – | – | 1059.3 ± 6.1 | 202 ± 14
313.15 K | – | – | 1056.5 ± 6 | 150 ± 10
318.15 K | – | – | 1053.6 ± 6 | 115 ± 8
323.15 K | – | – | 1050.7 ± 6 | 90 ± 6
328.15 K | – | – | 1047.8 ± 5.9 | 72 ± 5
333.15 K | – | – | 1044.9 ± 5.9 | 58 ± 4
338.15 K | – | – | 1042.1 ± 5.9 | –
343.15 K | – | – | 1039.2 ± 5.8 | –
348.15 K | – | – | 1036.4 ± 5.8 | –
353.15 K | – | – | 1033.5 ± 5.8 | –

CCCCCCCC[P+](CC)(CC)CC.O=[N+]([O-])c1c[n-]cn1 [triethyloctylphosphonium 4-nitroimidazolide]
Conditions | Normal melting temperature [°C] | mass density [kg/m3] | viscosity [mPa·s]
– | -28 ± 2 | – | –
278.15 K | – | – | 1220 ± 110
283.15 K | – | 1037.8 ± 5.8 | 804 ± 68
288.15 K | – | 1034.8 ± 5.8 | 547 ± 44
293.15 K | – | 1031.8 ± 5.8 | 382 ± 29
295.15 K | – | 1030.6 ± 5.7 | –
298.15 K | – | 1028.8 ± 5.7 | 276 ± 20
303.15 K | – | 1025.8 ± 5.7 | 204 ± 14
308.15 K | – | 1022.9 ± 5.7 | 155 ± 11
313.15 K | – | 1020.1 ± 5.6 | 120 ± 8
318.15 K | – | 1017.2 ± 5.6 | 95 ± 6
323.15 K | – | 1014.3 ± 5.6 | 76 ± 5
328.15 K | – | 1011.4 ± 5.5 | 62 ± 4
333.15 K | – | 1008.5 ± 5.5 | 52 ± 3
338.15 K | – | 1005.7 ± 5.5 | –
343.15 K | – | 1002.8 ± 5.4 | –
348.15 K | – | 1000 ± 5.4 | –
353.15 K | – | 997.1 ± 5.4 | –

CCCCCCCCCCCCCC[P+](CCCCCC)(CCCCCC)CCCCCC.Cc1ncc([N+](=O)[O-])[n-]1 [trihexyl(tetradecyl)phosphonium 2-methyl-5-nitroimidazolide]
Conditions | Glass transition temperature [°C] | mass density [kg/m3] | viscosity [mPa·s]
– | -79 ± 2 | – | –
278.15 K | – | – | 5890 ± 650
283.15 K | – | 948.1 ± 4.9 | 3730 ± 390
288.15 K | – | 945.1 ± 4.9 | 2420 ± 240
293.15 K | – | 941.9 ± 4.8 | 1620 ± 150
295.15 K | – | 940.6 ± 4.8 | –
298.15 K | – | 938.7 ± 4.8 | 1110 ± 100
303.15 K | – | 935.7 ± 4.8 | 786 ± 66
308.15 K | – | 932.8 ± 4.8 | 569 ± 46
313.15 K | – | 929.8 ± 4.7 | 420 ± 32
318.15 K | – | 926.9 ± 4.7 | 317 ± 24
323.15 K | – | 924 ± 4.7 | 244 ± 18
328.15 K | – | 921.1 ± 4.7 | 192 ± 13
333.15 K | – | 918.2 ± 4.6 | 153 ± 11
338.15 K | – | 915.3 ± 4.6 | 125 ± 8
343.15 K | – | 912.5 ± 4.6 | –
348.15 K | – | 909.6 ± 4.6 | –
353.15 K | – | 906.8 ± 4.6 | –

CCC=C[P+](CC)(CC)CC.O=[N+]([O-])c1cn[n-]c1 [(buten-1-yl)triethylphosphonium 4-nitropyrazolide]
Conditions | Normal melting temperature [°C] | viscosity [mPa·s]
– | 39 ± 2 | –
298.15 K | – | 134 ± 9
303.15 K | – | 102 ± 7
308.15 K | – | 79 ± 5
313.15 K | – | 63 ± 4
318.15 K | – | 52 ± 3

CCCC[n+]1cccn1C.O=S(=O)([N-]S(=O)(=O)C(F)(F)F)C(F)(F)F [1-butyl-2-methylpyrazolium bis(trifluoromethylsulfonyl)imide]
Conditions | Glass transition temperature [°C] | mass density [kg/m3] | viscosity [mPa·s]
– | -82 ± 2 | – | –
278.15 K | – | – | 214 ± 15
283.15 K | – | 1465.4 ± 12 | 155 ± 11
288.15 K | – | 1460.7 ± 12 | 116 ± 8
293.15 K | – | 1456 ± 12 | 88 ± 6
295.15 K | – | 1454.06 ± 12 | –
298.15 K | – | 1451.2 ± 12 | 70 ± 5
303.15 K | – | 1446.5 ± 11 | 55 ± 4
308.15 K | – | 1441.8 ± 11 | –
313.15 K | – | 1437.1 ± 11 | –
318.15 K | – | 1432.4 ± 11 | –
323.15 K | – | 1427.7 ± 11 | –
328.15 K | – | 1423 ± 11 | –
333.15 K | – | 1418.4 ± 11 | –
338.15 K | – | 1413.8 ± 11 | –
343.15 K | – | 1409.1 ± 11 | –
348.15 K | – | 1404.6 ± 11 | –
353.15 K | – | 1400 ± 11 | –

CCCCCCn1cc[n+](C)c1C.O=[N+]([O-])c1cn[n-]c1 [1-hexyl-2,3-dimethylimidazolium 4-nitropyrazolide]
Conditions | Glass transition temperature [°C] | mass density [kg/m3] | viscosity [mPa·s]
– | -47 ± 2 | – | –
278.15 K | – | – | 14600 ± 1800
283.15 K | – | 1129.4 ± 6.9 | 6910 ± 800
288.15 K | – | 1126 ± 6.9 | 3490 ± 370
293.15 K | – | 1122.4 ± 6.8 | 1910 ± 180
295.15 K | – | 1121 ± 6.8 | –
298.15 K | – | 1118.9 ± 6.8 | 1110 ± 100
303.15 K | – | 1115.7 ± 6.8 | 691 ± 58
308.15 K | – | 1112.4 ± 6.7 | 450 ± 35
313.15 K | – | 1109.2 ± 6.7 | 303 ± 23
318.15 K | – | 1106 ± 6.6 | 213 ± 15
323.15 K | – | 1102.8 ± 6.6 | 147 ± 10
328.15 K | – | 1099.7 ± 6.6 | 112 ± 8
333.15 K | – | 1096.6 ± 6.5 | 87 ± 6
338.15 K | – | 1093.5 ± 6.5 | 69 ± 5
343.15 K | – | 1090.4 ± 6.4 | 56 ± 4
348.15 K | – | 1087.4 ± 6.4 | –
353.15 K | – | 1084.3 ± 6.4 | –

CCCCCCCC[P+](CC)(CC)CC.O=S(=O)([N-]S(=O)(=O)C(F)(F)F)C(F)(F)F [triethyloctylphosphonium bis(trifluoromethylsulfonyl)imide]
Conditions | mass density [kg/m3] | viscosity [mPa·s]
278.15 K | – | 379 ± 29
283.15 K | 1256.3 ± 8.6 | 268 ± 20
288.15 K | 1252.2 ± 8.5 | 194 ± 14
293.15 K | 1248.1 ± 8.5 | 145 ± 10
295.15 K | 1246.6 ± 8.5 | –
298.15 K | 1244.2 ± 8.4 | 111 ± 8
303.15 K | 1240.2 ± 8.4 | 87 ± 6
308.15 K | 1236.2 ± 8.3 | 73 ± 5
313.15 K | 1232.2 ± 8.3 | 57 ± 4
318.15 K | 1228.2 ± 8.2 | –
323.15 K | 1224.2 ± 8.2 | –
328.15 K | 1220.2 ± 8.1 | –
333.15 K | 1216.3 ± 8.1 | –
338.15 K | 1212.3 ± 8 | –
343.15 K | 1208.4 ± 7.9 | –
348.15 K | 1204.4 ± 7.9 | –
353.15 K | 1200.5 ± 7.8 | –

CCCCCCCCCCCCCC[P+](CCCCCC)(CCCCCC)CCCCCC.O=S(=O)([N-]S(=O)(=O)C(F)(F)F)C(F)(F)F
Conditions | Glass transition temperature [°C] | mass density [kg/m3] | viscosity [mPa·s]
– | -82 ± 2 | – | –
278.15 K | – | – | 1210 ± 110
283.15 K | – | 1076.1 ± 6.3 | 841 ± 71
288.15 K | – | 1072.4 ± 6.2 | 594 ± 48
293.15 K | – | 1068.8 ± 6.2 | 430 ± 33
295.15 K | – | 1067.3 ± 6.2 | –
298.15 K | – | 1065.1 ± 6.1 | 318 ± 24
303.15 K | – | 1061.5 ± 6.1 | 241 ± 17
308.15 K | – | 1057.9 ± 6.1 | 185 ± 13
313.15 K | – | 1054.4 ± 6 | 145 ± 10
318.15 K | – | 1050.8 ± 6 | 115 ± 8
323.15 K | – | 1047.3 ± 5.9 | 92 ± 6
328.15 K | – | 1043.7 ± 5.9 | 76 ± 5
333.15 K | – | 1040.1 ± 5.9 | 63 ± 4
338.15 K | – | 1036.6 ± 5.8 | –
343.15 K | – | 1033 ± 5.8 | –
348.15 K | – | 1029.5 ± 5.7 | –
353.15 K | – | 1026 ± 5.7 | –
